Data as given in article PMC7997155, “Permeability of the Cyanotoxin Microcystin-RR across a Caco-2 Cells Monolayer” (Toxins, 2021).
Starred links: 1 amine or outer side, 2 acyl side, 3 side chain; linkers in the order of their positions; H or OH if unused. Positions of bridges follow the written chain, without caps; N, C: chain ends. Non-standard residues stand in square brackets, D forms with d. Residues, ends and D or L forms follow the SMILES beside them. Adda = CO[C@@H](Cc1ccccc1)[C@@H](C)/C=C(C)/C=C/[C@H](N[*:1])[C@H](C)C(=O)[*:2]; dAsp(3S-Me) = C[C@H](C(=O)[*:3])[C@@H](N[*:1])C(=O)[*:2]; d(γGlu) = O=C(O)[C@@H](CCC(=O)[*:2])N[*:1]; NMeDha = C=C(NC)C(=O)O

Tests used:
[1] = test system: Caco-2 cell monolayers; details: Caco-2 monolayers; ref historical data generated in our laboratory; cited from earlier work
Procedure: Experiments were performed as previously described, with a few modifications, described as follows. Four solutions of MC-RR (1, 10, 25, and 55 µM) were prepared in the transport buffer (HBSS, 4-(2-Hydroxyethyl)piperazine-1-ethanesulfonic acid (HEPES) 5 mM, pH 7.4) in glass vials and loaded into the donor compartments: 300 µL in compartments A (for A–B transport experiments) and 1000 µL in compartment B (for B–A transport experiments). The final concentration of methanol in the transport buffer for all MC-RR solutions was set at 1.3%, which was previously shown not to alter the integrity ...

[2] = test system: Caco-2 cell monolayer; format: in vitro ADME, human
[3] = Binding to plastic (preliminary experiment); format: in vitro ADME
Procedure: Experiments were performed as previously described, with a few modifications, described as follows. Four solutions of MC-RR (1, 10, 25, and 55 µM) were prepared in the transport buffer (HBSS, 4-(2-Hydroxyethyl)piperazine-1-ethanesulfonic acid (HEPES) 5 mM, pH 7.4) in glass vials and loaded into the donor compartments: 300 µL in compartments A (for A–B transport experiments) and 1000 µL in compartment B (for B–A transport experiments). The final concentration of methanol in the transport buffer for all MC-RR solutions was set at 1.3%, which was previously shown not to alter the integrity of Caco-2 cell monolayers. In a preliminary experiment, the binding of MC-RR to plastic was checked and considered negligible (data not shown). At different time points (1, 2, 4, 6, and 24 h for A–B transport experiments and 1, 2, 4, and 6 h for B–A transport experiments), the whole volume of each compartment was harvested and stored in glass vials at −20 °C until analysis. Due to the toxicity of methanol 1.3% when applied in compartment B for 24 h, this time point was not performed for B–A experiments. Only Caco-2 cell monolayers with a TEER > 250 ohm.cm² before and after transport experiments were used. […]. These threshold values correspond to those preconized by the European Center for the Validation of Alternatives Methods. Four independent experiments were performed.

| Compound | Papp of lucifer yellow corresponding to a TEER value of 250 ohm.cm² [1] | Amount detected in the apical compartment [2] | Amount detected in the basolateral compartment [2] | Decrease of MC-RR amounts in the basolateral (donor) compartment [2] | Involvement of an active efflux mechanism (A–B versus B–A Papp) [2] | Binding to plastic [3] |
| --- | --- | --- | --- | --- | --- | --- |
| lucifer yellow | 0.6 ×10⁻⁶ cm/s | – | – | – | – | – |
| C=C1C(=O)N[C@H](C)C(=O)N[C@@H](CCCNC(=N)N)C(=O)N[C@@H](C(=O)O)[C@H](C)C(=O)N[C@@H](CCCNC(=N)N)C(=O)N[C@@H](/C=C/C(C)=C/[C@H](C)[C@H](Cc2ccccc2)OC)[C@H](C)C(=O)N[C@@H](C(=O)O)CCC(=O)N1C [MC-RR, microcystin-RR] (R[Adda][d(γGlu)][NMeDha][dA]R[dAsp(3S-Me)]-OH; lactam N-7) | – | below the lower LOQ | below the lower LOQ | 25 % of the loaded amount | no involvement of an active efflux mechanism | negligible |
